Assay results: a melting point compilation (Tetko et al.; mined from patent text by program, amines drawn as free bases though some values may be those of a salt)

`C=CCc1c(Br)cc(C(C)(C)c2cc(Br)c(CC=C)c(Br)c2)cc1Br` gave a melting point of 114 °C.
For `Cc1[nH]n(C)c2nc(-c3ccncc3)nc(=O)c1-2`, the melting point was > 301 °C.
In the case of `COc1cnc(NCCNCC(O)COc2ccccc2)c2ccccc12` (stereo unspecified), the melting point is reported as 152 to 153 °C.
In the case of `CC1OC(n2cnc3c(S(N)(=O)=O)nc(N)nc32)C(O)C1O` (stereo unspecified), the melting point is reported as > 90 °C.
For `O=C(O)C1CCN(c2cc(-c3ccc(Cl)cc3)nc3ccccc23)CC1`, the melting point was 245 to 247 °C.
Compound `N#CNc1nccc(Oc2ccc(NC(=O)c3cc(F)cc(N4CCCCC4)c3)c3ccccc23)n1` has a melting point of 160 to 162 °C.
For `Cc1ccc(-c2ccc3c(c2)CCc2nn(-c4ccccn4)c(O)c2-3)cc1`, the melting point was 177 to 178 °C.
With `O=Cc1ccc(CN2C(=O)c3ccccc3C2=O)c(Cl)c1` the melting point was 123 to 126 °C.
In the case of `CC#CCOc1cc(OCC#CC)ncn1`, the melting point is reported as 82.9 °C.
In the case of `CCC(c1cc2c(-c3ccc(C(F)(F)F)n(C)c3=O)c(F)cc(Cl)c2o1)S(C)(=O)=O` (stereo unspecified), the melting point is reported as 146 to 148 °C.
With `O=C(CN1CCC(c2noc3cc(F)ccc23)CC1)N1Cc2ccccc2C1` the melting point was 184 to 185 °C.
With `COc1cccc(NC(=O)NC2N=C(c3ccccc3)c3ccccc3N(CC(=O)N3CCCC3)C2=O)c1` (stereo unspecified) the melting point was 193 to 194 °C.
Work on `COc1ccc([C@H](Sc2cc(Oc3ccc4c(c3)OCO4)ccc2N)[C@@H](O)C(=O)O)cc1` yielded a melting point of 112 to 113 °C.
With `Cc1oc(-c2ccccc2)nc1COc1ccc(C=NO)cc1` the melting point was 192 to 193 °C.
Compound `CC(=O)OCCOc1cccc(C(N)=O)c1` has a melting point of 121 to 122 °C.
With `[N-]=[N+]=NCC1OC(n2cc(C=CBr)c(=O)[nH]c2=O)CC1Cl` (stereo unspecified) the melting point was 58 to 60 °C.
Work on `Cc1cc(CCCCNc2nc(CO)nn2C)sc1C=O` yielded a melting point of 118 to 121 °C.
`COCCc1cc(N2CCN(C)CC2)n2nc(SC)c(S(=O)(=O)c3ccccc3)c2n1` gave a melting point of 160 to 161 °C.
In the case of `CCCCCCc1ccc(C(=O)N2CCOCC2)cc1[N+](=O)[O-]`, the melting point is reported as 68.5 to 71.5 °C.
In the case of `O=C1NCCN1N=Cc1ccccc1`, the melting point is reported as 201 to 206 °C.
In the case of `CC(C)(C)c1cc(C(C)(CCC(=O)O)c2ccc(O)c(C(C)(C)C)c2)ccc1O`, the melting point is reported as 155 °C.
With `CC(=O)N(N)c1ccc(C(F)(F)F)cc1NC(=O)c1ccccc1` the melting point was 212 to 214 °C.
For `Cc1cc(C)c2c(c1)OC(C)(COc1ccc([N+](=O)[O-])cc1)CC2=O` (stereo unspecified), the melting point was 86 to 88.5 °C.
`Cn1c(Cl)c(Cl)c(C#N)c1Cl` gave a melting point of 113 to 114 °C.
Work on `Nc1ccc2c(=O)n(-c3ccccc3)c(=O)n(-c3ccccc3)c2n1` yielded a melting point of 162 to 163 °C.
For `CCNC(=O)c1ccc(-c2ccc(-c3ccccc3)c(-c3ccc4c(c3)C(C)(C)CCC4(C)C)c2)cc1`, the melting point was 183 °C.
For `Cc1cc(CN2N=C(C(F)(F)C(F)(F)F)NC2(O)C(C)(C)C)ccc1[N+](=O)[O-]` (stereo unspecified), the melting point was 125 to 128 °C.
With `CC(=O)OCC1OC(n2c(Cl)nc3cc(Cl)ccc32)C(OC(C)=O)C1OC(C)=O` (stereo unspecified) the melting point was 98 to 100 °C.
Compound `CS(=O)c1ccc(-c2nc(S)[nH]c2-c2ccc(S(C)=O)cc2)cc1` (stereo unspecified) has a melting point of 261 to 262 °C.
`CC(Sc1nc(Cl)cc(NCc2ccc(Cl)cc2)n1)C(=O)O` (stereo unspecified) showed a melting point of 133 to 136 °C.
`COC(=O)C=CC(=CN(C)C)C(=O)OC` gave a melting point of 62 °C.
With `CCCC(O)c1cc(-c2ccc(F)cc2)oc1C` (stereo unspecified) the melting point was 96 to 97 °C.
For `CCC(C(C)C)C(OC(C)=O)C(OC(C)=O)C(C)C1CCC2C3CC(=O)C4CC=CCC4(C)C3CCC12C` (stereo unspecified), the melting point was 116 to 118 °C.
Work on `COC(=O)[C@H](C)N(C(=O)[C@H](CC(C)C)NC(=O)OC(C)(C)C)c1ccc(F)cc1` yielded a melting point of 121 to 122 °C.
For `CCC1CC(=O)N(Cc2ccc(NC(C)=O)cc2)N=C1c1ccc(OC)c(OC)c1` (stereo unspecified), the melting point was 133 °C.
For `CCc1cc(-c2ccc(Cl)cc2)nc2c(C(=O)O)cnn12`, the melting point was 227 °C.
For `CCOC(=O)c1cc(-c2ccccc2)n(-c2cccc(C)c2)c1C`, the melting point was 103 to 104 °C.
In the case of `CCOC(=O)c1cnn(-c2cccc(S(=O)(=O)N(C)C)n2)c1N`, the melting point is reported as 197 to 198 °C.
`COc1ccc(CN(CCN(C)CCCNC(=O)NCCSCc2csc(NC(=N)N)n2)c2ccccn2)cc1` gave a melting point of 106 to 109 °C.
`O=C1CCC2=C(CCc3cc(F)ccc32)N1` gave a melting point of 223 to 224 °C.
In the case of `O=C1NC(=O)C2c3cccc4cccc(c34)C12` (stereo unspecified), the melting point is reported as 242 to 246 °C.
Work on `COc1ccc(-c2c(Cl)c(CN3C(=O)COC3=O)nc3sc4c(c23)CCC(C(=O)O)C4)cc1` (stereo unspecified) yielded a melting point of 218 to 219 °C.
`CCOC(=O)c1cn(C2CC2)c2c(F)c(N3CCOC(CN(C)C)C3)c(F)cc2c1=O` (stereo unspecified) showed a melting point of 168 to 169 °C.
With `O=C(N[C@@H](Cc1c[nH]c2ccccc12)C(=O)O)c1ccc(Cl)cc1` the melting point was 100 to 102 °C.
Work on `c1ccc(CN2CCC3(CC(c4ccccc4)=NO3)C2)cc1` (stereo unspecified) yielded a melting point of 31 to 40 °C.
`CN(CCc1ccncc1)S(=O)(=O)C1CCCCC1` gave a melting point of 94 to 96 °C.
Compound `CCCCOc1c(CN2C(=O)c3ccccc3C2=O)n(CC(C)(C)C)c(=O)c2ccc(F)cc12` has a melting point of 162 to 164 °C.
Work on `COc1cc(C2=CCCc3ccccc32)c(Cl)cc1C(=O)N1Cc2cccn2Cc2ccccc21` yielded a melting point of 209 to 210 °C.
With `Cc1c(C=CCN2CC=C(c3ccccc3)CC2)cnn1-c1ncccn1` the melting point was 112 to 114 °C.
Compound `Cc1c(C)c(N2C(=O)c3cc(Cl)c(Cl)cc3C2=O)c(C)c2c1OC(C)(C)C2c1ccc(F)cc1` (stereo unspecified) has a melting point of 232 to 233 °C.
Work on `CCc1nccn1CCCNC(=O)c1ccc(Cl)cc1` yielded a melting point of 120 to 122 °C.
In the case of `CS(=O)(=O)c1ccc(-c2nc(C(F)(F)F)nc(Cl)c2-c2ccccc2)cc1`, the melting point is reported as 156 to 159 °C.
For `COc1cc2ccc(-c3cc4c(cc3[N+](=O)[O-])OCO4)c([N+](=O)[O-])c2cc1OC`, the melting point was 187 to 189 °C.
For `C=CCn1c2ccccc2c2ccccc21`, the melting point was 52 to 54 °C.
`Cc1cc(-c2ccc(C(F)(F)F)nc2)cc(-c2cccc(-c3ccc(S(N)(=O)=O)s3)c2)n1` showed a melting point of 231 to 233 °C.
In the case of `COc1cc2c(cc1OC)C(=O)C(Br)C2` (stereo unspecified), the melting point is reported as 159 to 160 °C.
With `CCCCCC(CC(=O)Nc1cc(C(N)=O)ccc1C(C)(C)C)c1ccc(OCCCOC)cc1OC` (stereo unspecified) the melting point was 65 to 67 °C.
`O=S1N=C(NCCCN(Cc2ccc(F)cc2)c2ccccn2)C(NCc2ccncc2)=N1` (stereo unspecified) showed a melting point of 160 to 163 °C.
In the case of `O=C(O)c1cn(-c2ccc(F)cc2)c2c(F)c(N3CCCC3)c(F)cc2c1=O`, the melting point is reported as 282 to 284 °C.
Work on `COc1ccc(C(=O)Nc2cc(C(=O)NCc3ccccc3)ccn2)cc1` yielded a melting point of 165 to 166 °C.
With `O=C(NC(Cc1c[nH]c2ccccc12)C(=O)O)c1ccccc1Cl` (racemic) the melting point was 56 to 70 °C.
For `Cn1cc(C(=O)Nc2ccccc2-c2ccc(Cl)cc2Cl)c(C(F)(F)F)n1`, the melting point was 136 to 140 °C.
Work on `O=C(NCC1CCN(C(=O)OCc2ccccc2)CC1)c1ccc(O)cc1` yielded a melting point of 122 to 123 °C.
Work on `Cc1cccc(C(=O)Nc2cccc3c2C(=O)N(C2CCC(=O)NC2=O)C3=O)c1` (stereo unspecified) yielded a melting point of 234 to 236 °C.
Work on `COc1ccc(C(=O)c2coc3ccccc23)cc1` yielded a melting point of 89 to 90 °C.
With `Clc1ccc(C(Cn2ccnc2)SCCC=Cc2ccccc2)c(Cl)c1` (stereo unspecified) the melting point was 111 to 113 °C.
For `Nc1ccc2[nH]nc(Nc3nc(-c4ccccc4C(F)(F)F)nc4ccccc34)c2c1`, the melting point was 221 to 223 °C.
`CCOC(=O)N1CCC(n2ccc3ccccc32)CC1` showed a melting point of 127 °C.
For `O=C(O)c1ccc(OCCNC(=O)C2Cc3ccccc3N2S(=O)(=O)c2ccc(-c3cccc(C(F)(F)F)c3)cc2)c(Cl)c1` (stereo unspecified), the melting point was 135 to 140 °C.
`O=[N+]([O-])c1cccnc1Oc1nn(Cc2ccccc2F)c2ncccc12` gave a melting point of 115 to 117 °C.
`CCOC(=O)C(=CNc1ccnc(-c2ccncc2)n1)C(=O)OCC` showed a melting point of 143 to 145 °C.
Compound `CCOc1nn(Cc2ccc(OCc3nc(-c4cccs4)oc3C)cc2)cc1CCC(=O)O` has a melting point of 156 to 157 °C.
In the case of `CCCC(O)(CCC)c1ccc(C2=CC=CC(OCc3ccc(CO)c(CO)c3)C2(C)C)cc1` (stereo unspecified), the melting point is reported as 118 to 120 °C.
In the case of `CCOC(=O)c1cc2c(cn1)[nH]c1ccccc12`, the melting point is reported as 229 °C.
`CC(C)(O)C(=O)CC(=O)c1ccc(C(=O)CC(=O)C(C)(C)O)cc1` gave a melting point of 276 to 278 °C.
With `CCOC(=O)c1cn(Cc2ccc(OCc3ccccc3)cc2)nc1OCc1ccc(OCc2ccccc2)cc1` the melting point was 124 to 125 °C.
In the case of `O=C1Nc2ccc(Cl)cc2C2(c3ccccc3)OCCCN12` (stereo unspecified), the melting point is reported as 202 to 204 °C.
In the case of `O=S(=O)(NCCNCC=Cc1ccc(Cl)cc1)c1cccc2cnccc12`, the melting point is reported as 120 to 123 °C.
In the case of `COC(=O)c1cc(C(=O)OC)n(-c2ccc([N+](=O)[O-])cc2C(=O)c2ccccc2)n1`, the melting point is reported as 150 to 152 °C.
For `CN1C(=O)N(c2c(Cl)cccc2Cl)Cc2cnc(N)nc21`, the melting point was 176 to 184 °C.
`Cc1ccccc1OCCCc1oc(-n2ccnc2)nc1-c1ccc(Cl)cc1` showed a melting point of 113 to 114 °C.
Work on `COc1ccc(-c2sc3c(c2C)c(=O)c(CO)cn3Cc2ccccc2OC)cc1` yielded a melting point of 153 to 156 °C.
For `c1ccc(Cc2n[nH]c(NCCCCOc3cccc(CN4CCCCC4)c3)n2)cc1`, the melting point was 145 to 146 °C.
With `COC1C(CO)OC(n2cnc3c(N)ncnc32)C1(C)O` (stereo unspecified) the melting point was 180 °C.
`CC(O)c1cc2c(s1)C(=O)c1c(C(C)O)csc1C2=O` (stereo unspecified) showed a melting point of 218 to 219 °C.
Compound `O=C(Oc1c(Cl)cc(Cl)c(Cl)c1Cl)c1ccc(CCl)cc1` has a melting point of 143 to 149 °C.
Compound `O=C1c2c(O)cccc2C(=CCc2ccccc2)c2cccc(O)c21` has a melting point of 128 to 129 °C.
With `CCCCn1cncc1C(O)(c1ccc(Cl)cc1)c1ccc2c(c1)c(-c1cccc(Cl)c1)cc(=O)n2C` (stereo unspecified) the melting point was 175 °C.
`COC(=O)CC[C@H](NC(=O)c1c[nH]c(CCC2CNc3nc(NC(=O)C(C)(C)C)nc(O)c3C2)n1)C(=O)OC` (stereo partly specified) gave a melting point of 129 to 131 °C.
`CCOC(=O)c1ncc2[nH]c3ccc(C4CCCCC4)cc3c2c1COC` gave a melting point of 254 to 266 °C.
Compound `CC(O)c1nn(Cc2ccccc2)c(=O)o1` (stereo unspecified) has a melting point of 70 °C.
With `O=Cc1ccc2nc3c(cc2c1)-c1cccc2cccc-3c12` the melting point was 245 to 246 °C.
Work on `COc1c([N+](=O)[O-])ccc(C=O)c1OS(=O)(=O)c1ccccc1` yielded a melting point of 74 to 76 °C.
With `CSc1cc2c(cc1C(F)(F)F)N(C(=O)Nc1ccc(C(=O)NCCN(C)C)cc1)CC2` the melting point was 154 to 155 °C.
`CSc1nnc(-c2nn(C)c(C)c2S(N)(=O)=O)o1` gave a melting point of 156 to 158 °C.
For `COc1ccc(-c2c(-c3ccccc3)c(Sc3ccc4c(c3)CC[C@H]3N(C)C(=O)CC[C@]43C)nc3ccccc23)cc1`, the melting point was 239 to 242 °C.
